The results in this text go back to patent US20180071268A1, “COMPOSITIONS AND METHODS FOR TREATING MICROBIOTA-RELATED PSYCHOTROPIC CONDITIONS AND DISEASES” (priority 2013, published 2018).

Assay type in all cases: in vivo, human
One data set relates to ASD. Put plainly: Treatment of person with ASD, chronic constipation and abdominal discomfort with oral Vancomycin (case report). The procedure:
A patient was brought by their parent for consultation. They had been suffering from ASD since early childhood but also had chronic constipation and abdominal discomfort. The treatment was focussed on the constipation problem as this was the major component of their complaints when interviewed. They were commenced on to 50 mg Vancomycin twice daily for the first week increasing to 250 mg 3 times daily as an oral dose which is not absorbed. […] However they also noticed a change in behaviour of the child. They were much calmer, with their low vocabulary and inability to complain formally, they were no longer screaming and vocalising their pain using repetitive movements. […] This is both with verbal and non-verbal communication.

The subject of the next data set is OCD. Nature of the data set: Exemplary treatment of OCD in adult with rifaximin (case report). Here is the method: A married office worker had suffered with OCD since childhood. Having been treated with various pharmacologic agents through life their behaviour patterns were largely controlled except for one behaviour of needing to check gas outlets and powerpoints every night in case their children were hurt or damaged overnight by some unforseen accident. This continued to be a ‘sleep-draining’ issue not controllable by Zoloft, anfranil and other drugs.
They were commenced on rifaximin 500 mg capsules twice daily for the first week, then 1 g twice daily thereafter.
They remain on long term rifaximin.

Data set [1] concerns Autistic Spectrum Disorder(ASD). Nature of the data set: Treatment of child with Autistic Spectrum Disorder with Aztreonam, then added Vancomycin (case report). To be noted: Aztreonam 50 mg 3 times daily; about two weeks after starting. Here is the method: A child who was diagnosed with development of Autistic Spectrum Disorder(ASD) with change in bowel habit, withdrawal from ‘society’ and loss of vocabulary/words/vocalizing ability as well as reduced socialisation and eye contact was treated with Aztreonam 50 mg 3 times daily.

In data set [2] the test system is Autism Spectrum Disorder (ASD). Put plainly: Treatment of twin sisters with Autism Spectrum Disorder and OCD component with oral Gentamicin, then added Rifaximin (case report). To be noted: oral Gentamicin 80 mg 3 times daily in capsules; within three weeks. Here is the method:
Twin sisters who were diagnosed with Autism Spectrum Disorder (ASD) at different levels of reading capability, writing and comprehension in Grade 3 and 4, together with abdominal cramping and alternating hard/soft defecation changes were started on oral Gentamicin 80 mg 3 times daily in capsules. […] After three weeks Rifaximin was added to the mix of drugs at a dose of 500 mg twice daily and the patients were further observed with a combination of Gentamicin and Rifaximin.

Setting [3] is: oral Vancomycin, at four week interview.

In the case of `CN[C@H](CC(C)C)C(=O)N[C@H]1C(=O)N[C@@H](CC(N)=O)C(=O)N[C@H]2C(=O)N[C@H]3C(=O)N[C@H](C(=O)N[C@H](C(=O)O)c4cc(O)cc(O)c4-c4cc3ccc4O)[C@H](O)c3ccc(c(Cl)c3)Oc3cc2cc(c3O[C@@H]2O[C@H](CO)[C@@H](O)[C@H](O)[C@H]2O[C@H]2C[C@](C)(N)[C@H](O)[C@H](C)O2)Oc2ccc(cc2Cl)[C@H]1O` [Vancomycin], the “abdominal discomfort initially after start of treatment” value in the data set on ASD (oral Vancomycin 50 mg twice daily first week increasing to 250 mg 3 times daily, initially) was “some increase in abdominal discomfort”. Besides, the “side effects from the medication” value with ASD (oral Vancomycin 750 mg to 1 g, nine months of treatment) is “without any undue side effects”. For the same compound, the “communication, verbal and non-verbal” value in the data set on ASD (oral Vancomycin, after four months) was “better communication between the parents and the child”. Also, in the data set with ASD (setting [3]), the “behaviour of the child” value was “much calmer”; the constipation and pain entry is “markedly improved”; the repetitive movements entry was “came down quite markedly”. For the same compound, the pain entry with ASD (oral Vancomycin, within a few days onwards) is “progressively disappeared”. In addition, the “bowel function (evacuation frequency)” value in the data set on ASD (oral Vancomycin, within a few days, before: once every three to four days) is “daily or twice daily and even three times daily evacuation”.

For `CO[C@H]1/C=C/O[C@@]2(C)Oc3c(C)c(O)c4c(O)c(c5c(nc6cc(C)ccn65)c4c3C2=O)NC(=O)/C(C)=C\C=C\[C@H](C)[C@H](O)[C@@H](C)[C@@H](O)[C@@H](C)[C@H](OC(C)=O)[C@@H]1C` [rifaximin], in the data set with OCD (next 3 months of monitoring their behaviour), the “persistence of the improvement during monitoring” value is “almost universal”. Also, the “OCD behaviour: need to check gas outlets and powerpoints every night” value with OCD (person, rifaximin 500 mg capsules twice daily first week, then 1 g twice daily) was “absence of the need to check the gas outlets and powerpoints”. For the same compound, in the data set on OCD (person, rifaximin 500 mg twice daily first week, then 1 g twice daily), the “time until absence of the checking behaviour was noticed” value is recorded as at most 10 days.

`C[C@H]1[C@H](NC(=O)/C(=N\OC(C)(C)C(=O)O)c2csc(N)n2)C(=O)N1S(=O)(=O)O` [Aztreonam]: in data set [1], the eye contact result is reported as “greater eye contact”, the loose motions result is listed as “reduction in the loose motions”, the “socialisation with the other children” value is “greater socialisation” and the word power result is on record as “no increase in word power”.

As to Gentamicin, in data set [2], the “episodes of OCD behaviour” value is “marked reduction in the number of episodes of OCD behaviour”.
